Experimental data: the supplement of paper PMC5412046
Where a name gives a salt, the structure may show the parent alone.

Key:
SB.mhdgc-1 [1] = experiment: viability at highest tested concentration (MAXR) relative to DMSO; higher = less cytotoxic; conditions: SB.mhdgc-1 (hereditary c.1380delA CDH1 gastric cancer)
In short: (§1)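 Patient-derived gastric cancer cells, hereditary or sporadic, were plated at 500 cells in 5 μL medium per well of a 1536-well plate and given 23 nL of compound in DMSO by pintool across 11 threefold dilutions. The top concentration was recorded for each compound. After 48 h, CellTiter-Glo was added for 30 min at room temperature and luminescence was read on a ViewLux. Values are viability normalised to DMSO, taken either at the highest concentration or as trapezoidal area under the curve.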

SB.msgc-1 [2] = experiment: as above; conditions: SB.msgc-1 (sporadic gastric cancer)
In short: as §1

SB.mhdgc-1 [3] = experiment: area under the dose-response curve of % viability (trapezoidal, 11 doses) (% viability x log10 concentration); higher = less cytotoxic; conditions: SB.mhdgc-1 (hereditary c.1380delA CDH1 gastric cancer)
In short: as §1

SB.msgc-1 [4] = experiment: as above; conditions: SB.msgc-1 (sporadic gastric cancer)
In short: as §1

Row | Structure (SMILES) | viability (SB.mhdgc-1 [1]) [%] | viability (SB.msgc-1 [2]) [%] | area under the dose-response curve (SB.mhdgc-1 [3]) | area under the dose-response curve (SB.msgc-1 [4])
1 | Cn1cnc2c(F)c(Nc3ccc(Br)cc3Cl)c(C(=O)NOCCO)cc21 [Selumetinib] (top concentration 46.0829 µM) | 43.8 | 24.2 | 422 | 455
2 | CC(C)=CC[C@@H](O)C/1=C/C(=O)C2=C(O)C=CC(=C2C1=O)O [Shikonin] (top concentration 46.0829 µM) | 2.54 | 1.71 | 321 | 417
3 | CC(C)c1cc(C(C)C)c(CC(=O)N[S+](=O)([O-])Oc2c(C(C)C)cccc2C(C)C)c(C(C)C)c1 [Avasimibe] (top concentration 46.0829 µM) | 7.78 | 18.4 | 565 | 475
4 | O=C(O)COCCN1CCN(C(c2ccccc2)c2ccc(Cl)cc2)CC1 (stereo unspecified) [Cetirizine hydrochloride] (top concentration 46.0829 µM) | 101 | 120 | 561 | 582
5 | CC(C)(S)[C@@H](N)C(=O)O [Penicillamine] (top concentration 46.0829 µM) | 135 | 128 | 613 | 571
6 | C[C@]12CC(=O)[C@H]3[C@@H](CC\C4=C\C(=O)\C=C/[C@]34C)[C@@H]1CC[C@]2(O)C(=O)CO (top concentration 23.0415 µM) | 92.6 | 103 | 566 | 604
7 | COc1ccc(C(=O)CC(=O)c2ccc(C(C)(C)C)cc2)cc1 [Avobenzone] (top concentration 46.0829 µM) | 43.2 | 22.9 | 394 | 417
8 | CC[C@H]1OC(=O)[C@H](C)[C@@H](O[C@H]2C[C@@](C)(OC)[C@@H](O)[C@H](C)O2)[C@H](C)[C@@H](O[C@@H]2O[C@@H](C)C[C@H](N(C)C)[C@H]2O)[C@](C)(O)C[C@@H](C)C(=O)[C@H](C)[C@@H](O)[C@]1(C)O [Erythromycin] (top concentration 46.0829 µM) | 91 | 80.6 | 445 | 515
9 | O=C(O)c1cc(/N=N/c2ccc([S+](=O)([O-])Nc3ccccn3)cc2)ccc1O [Sulfasalazine] (top concentration 46.0829 µM) | 82.3 | 105 | 498 | 510
10 | N#C/N=C(\NCCCCCCOc1ccc(Cl)cc1)Nc1ccncc1 [GMX-1778] (top concentration 46.0829 µM) | 30.5 | 38.8 | 260 | 390
11 | CO[C@@H]1[C@H](N(C)C(=O)c2ccccc2)C[C@H]2O[C@]1(C)n1c3ccccc3c3c4c(c5c6ccccc6n2c5c31)C(=O)NC4 [Midostaurin] (top concentration 46.0829 µM) | 33.4 | 56.2 | 389 | 490
12 | CCCCCNC(=N)N/N=C/c1c[nH]c2ccc(OC)cc12 [Tegaserod maleate] (top concentration 46.0829 µM) | 20.9 | 35.6 | 438 | 442
13 | Cn1c(=O)c2[nH]cnc2n(C)c1=O [Theophyllamine] (top concentration 46.0829 µM) | 87.8 | 123 | 560 | 614
14 | CCN1CCN(c2ccc(Nc3cc(N(C)C(=O)Nc4c(Cl)c(OC)cc(OC)c4Cl)ncn3)cc2)CC1 [BGJ-398] (top concentration 46.0829 µM) | 2.17 | 16 | 495 | 465
15 | C[C@]12CCC\3=C\4CCC(=O)\C=C4CC[C@H]3[C@@H]1CC[C@@]2(O)CC#N [Dienogest] (top concentration 46.0829 µM) | 109 | 115 | 526 | 575
16 | COc1ccc(Nc2nccc(NCCO)n2)cc1 [Cardiogenol] (top concentration 46.0829 µM) | 101 | 73.1 | 452 | 353
17 | COc1ccc(-c2nc(N3CCOCC3)c3sc(CN(C)c4ncc(C(=O)NO)cn4)cc3n2)cn1 [CUDC-907] (top concentration 46.0829 µM) | 19.5 | 9.58 | 264 | 167
18 | O=C(NCC1CN(c2ccc(N3CCOCC3=O)cc2)C(=O)O1)c1ccc(Cl)s1 (stereo unspecified) [Rivaroxaban] (top concentration 46.0829 µM) | 113 | 84.9 | 538 | 505
19 | CN[C@@H](C)[C@H]1[C@H](O)C[C@@]2(C)[C@@H]3CC[C@H]4C(C)(C)[C@@H](NC)CC[C@@]45C[C@@]35CC[C@]12C [Cyclovirobuxin D] (top concentration 46.0829 µM) | 7.34 | 80.3 | 392 | 509
